Assay results published in a compilation of properties of binary mixtures (doi:10.1016/j.molliq.2019.03.144).

Assay: xn = mol fraction of the nth substance listed
Conditions: 96.7 kPa

c1ccncc1 + CC(=O)[O-].CC[n+]1ccn(C)c1
x2 = 0
Conditions | viscosity [mPa·s]
303.15 K | 0.843
313.15 K | 0.741
323.15 K | 0.658
333.15 K | 0.59
343.15 K | 0.533
353.15 K | 0.485

CC(=O)[O-].CC[n+]1ccn(C)c1 + c1ccncc1
viscosity [mPa·s]
Conditions | x1 = 0.166 | x1 = 0.318 | x1 = 0.411 | x1 = 0.52 | x1 = 0.649 | x1 = 0.806 | x1 = 0.898 | x1 = 1
303.15 K | 2.54 | 5.96 | – | 15.7 | 27.5 | 51 | 72.6 | 103.2
308.15 K | – | 5.29 | 8.29 | – | 22.7 | – | – | 76.1
313.15 K | 2.12 | 4.72 | 7.27 | 11.55 | 19 | 33.1 | 44.7 | 59.6
318.15 K | 1.95 | 4.22 | 6.42 | 9.99 | 16.09 | 27 | 36 | 47.4
323.15 K | 1.797 | 3.82 | 5.71 | – | 13.77 | 22.7 | – | 38.4
328.15 K | 1.671 | – | 5.11 | 7.68 | 11.88 | – | 24.5 | 31.5
333.15 K | 1.552 | – | 4.6 | 6.82 | – | 16.33 | 20.6 | –
338.15 K | 1.453 | – | 4.16 | 6.09 | 9.11 | 14.04 | 17.63 | 22
343.15 K | – | 2.65 | – | 5.47 | – | 12.35 | 15.11 | –
348.15 K | 1.278 | 2.45 | 3.46 | 4.96 | 7.18 | 10.77 | 13.26 | 16.25
353.15 K | 1.203 | – | 3.18 | 4.48 | 6.45 | 9.52 | 11.59 | 14.03
